pIC50: −log10 of the molar value. The source made the active and inactive calls.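 How the source made its calls: active means mean IC50 below 20 µM in each of the two panels, so potent in both; inactive means the rest.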
Target: Neuropilin-1 (Homo sapiens) (UniProt O14786)
Assay: blockers of CendR peptide binding to NRP-1 – biochemical, FP and AlphaScreen panel, dose response (AID 651650)
Conditions: NRP-1 b1b2 / RPARPAR peptide binding, FP or AlphaScreen
[1] = AlphaScreen, run 1, individual panel run IC50
[2] = FP, run 1, individual panel run IC50
[3] = FP, run 2, individual panel run IC50

Chain of Neuropilin-1 (Homo sapiens) (O14786 whole entry, looked up): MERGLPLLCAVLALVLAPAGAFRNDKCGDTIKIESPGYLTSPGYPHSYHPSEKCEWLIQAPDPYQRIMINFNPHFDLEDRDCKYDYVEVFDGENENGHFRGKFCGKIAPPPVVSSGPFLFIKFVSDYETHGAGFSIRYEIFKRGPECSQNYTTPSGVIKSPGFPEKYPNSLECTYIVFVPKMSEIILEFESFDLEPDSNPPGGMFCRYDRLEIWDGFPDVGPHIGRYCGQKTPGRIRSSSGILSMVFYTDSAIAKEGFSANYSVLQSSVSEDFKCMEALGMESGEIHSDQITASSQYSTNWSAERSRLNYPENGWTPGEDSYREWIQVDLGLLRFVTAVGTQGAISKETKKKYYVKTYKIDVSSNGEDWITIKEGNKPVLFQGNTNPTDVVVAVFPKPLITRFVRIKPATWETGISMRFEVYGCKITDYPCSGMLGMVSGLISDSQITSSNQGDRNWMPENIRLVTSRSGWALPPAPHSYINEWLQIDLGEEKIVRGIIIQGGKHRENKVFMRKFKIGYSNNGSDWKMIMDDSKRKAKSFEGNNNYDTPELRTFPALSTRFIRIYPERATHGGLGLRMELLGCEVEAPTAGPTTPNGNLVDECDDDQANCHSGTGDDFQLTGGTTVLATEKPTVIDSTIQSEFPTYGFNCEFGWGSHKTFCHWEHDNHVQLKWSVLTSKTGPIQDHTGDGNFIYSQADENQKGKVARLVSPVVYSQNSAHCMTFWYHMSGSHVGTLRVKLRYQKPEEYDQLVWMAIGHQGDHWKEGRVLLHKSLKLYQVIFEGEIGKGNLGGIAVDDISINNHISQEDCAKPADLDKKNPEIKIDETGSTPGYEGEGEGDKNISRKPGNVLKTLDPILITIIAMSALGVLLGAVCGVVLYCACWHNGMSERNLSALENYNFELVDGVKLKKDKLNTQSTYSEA

In the case of `O=C(NCCCN1CCOCC1)c1ccc2c(=O)n(-c3ccc(F)c(Cl)c3)c(=S)[nH]c2c1`, the IC50 (AlphaScreen, mean of runs) was > 100 µM (inactive), the pIC50 [1] was < 4.00 and the IC50 (FP, mean of runs) was > 95 µM (inactive). The pIC50 [2] was < 4.02 and the pIC50 [3] was < 4.02.
For `CCOC(=O)C1=CCN(S(=O)(=O)c2ccccc2Br)C1c1ccccc1` (stereo not given), the IC50 (AlphaScreen, mean of runs) was > 100 µM (inactive), the pIC50 [1] was < 4.00 and the IC50 (FP, mean of runs) was > 95 µM (inactive). The pIC50 [2] was < 4.02 and the pIC50 [3] was < 4.02.
With `CSc1nc2ccccc2c(=O)n1C1CCOC(C)(C)C1` (stereo not given) the IC50 (AlphaScreen, mean of runs) was > 100 µM (inactive), the pIC50 [1] was < 4.00 and the IC50 (FP, mean of runs) was > 95 µM (inactive). For the same compound, the pIC50 [2] was < 4.02 and the pIC50 [3] was < 4.02.
`Fc1cnc(N2CCOCC2)nc1N1CCOCC1` was tested, and the IC50 (AlphaScreen, mean of runs) was > 100 µM (inactive), the pIC50 [1] was < 4.00 and the IC50 (FP, mean of runs) was > 95 µM (inactive). The pIC50 [2] was < 4.02 and the pIC50 [3] was < 4.02.
For `Cc1csc(NC(C)c2nc3cc(C(F)(F)F)ccc3n2CCOCCO)n1` (stereo not given), the IC50 (AlphaScreen, mean of runs) was > 100 µM (inactive), the pIC50 [1] was < 4.00 and the IC50 (FP, mean of runs) was > 95 µM (inactive). The pIC50 [2] was < 4.02 and the pIC50 [3] was < 4.02.
For `CN(C(=O)COC(=O)c1cnc(Cl)c(Cl)c1)C1CCCCC1`, the IC50 (AlphaScreen, mean of runs) was > 100 µM (inactive), the pIC50 [1] was < 4.00 and the IC50 (FP, mean of runs) was > 95 µM (inactive). The pIC50 [2] was < 4.02 and the pIC50 [3] was < 4.02.
With `COc1ccc(Cn2c(C3CC3)nc3ccc(NC(=O)c4cccnc4)cc3c2=O)cc1` the IC50 (AlphaScreen, mean of runs) was “inactive”, the pIC50 [1] was 4.50 and the IC50 (FP, mean of runs) was > 95 µM (inactive). For the same compound, the pIC50 [2] was < 4.02 and the pIC50 [3] was < 4.02.
In the case of `COc1c2ccc(C(=O)NCc3cc(C(F)(F)F)cc(C(F)(F)F)c3)cc2nn1C`, the IC50 (AlphaScreen, mean of runs) was > 100 µM (inactive), the pIC50 [1] was < 4.00 and the IC50 (FP, mean of runs) was > 95 µM (inactive). For the same compound, the pIC50 [2] was < 4.02 and the pIC50 [3] was < 4.02.
For `O=C(Cc1ccccc1Cl)N1CCOCC1`, the IC50 (AlphaScreen, mean of runs) was > 100 µM (inactive), the pIC50 [1] was < 4.00 and the IC50 (FP, mean of runs) was > 95 µM (inactive). The pIC50 [2] was < 4.02 and the pIC50 [3] was < 4.02.
`C=CCOc1c(CNc2ncn[nH]2)cccc1OCC` was tested, and the IC50 (AlphaScreen, mean of runs) was > 100 µM (inactive), the pIC50 [1] was < 4.00 and the pIC50 (FP, mean of runs) was 5.00. The pIC50 [2] was 5.00 and the pIC50 [3] was < 4.02.
For `COc1cc2c(cc1OC)C(Nc1ccc(S(N)(=O)=O)cc1)=NC(C)(C)C2`, the IC50 (AlphaScreen, mean of runs) was “inactive”, the pIC50 [1] was 4.29 and the IC50 (FP, mean of runs) was > 95 µM (inactive). The pIC50 [2] was < 4.02 and the pIC50 [3] was < 4.02.
For `c1ccc(OCCCN2CCCC2)cc1`, the IC50 (AlphaScreen, mean of runs) was > 100 µM (inactive), the pIC50 [1] was < 4.00 and the IC50 (FP, mean of runs) was > 95 µM (inactive). For the same compound, the pIC50 [2] was < 4.02 and the pIC50 [3] was < 4.02.
In the case of `Cc1cc(C)n2c(SCC(=O)Nc3cccc(S(N)(=O)=O)c3)nnc2n1`, the IC50 (AlphaScreen, mean of runs) was > 100 µM (inactive), the pIC50 [1] was < 4.00 and the IC50 (FP, mean of runs) was > 95 µM (inactive). The pIC50 [2] was < 4.02 and the pIC50 [3] was < 4.02.
With `O=c1c2cn[nH]c2nc(SCc2ccccc2F)n1-c1ccc(Br)cc1` the IC50 (AlphaScreen, mean of runs) was > 100 µM (inactive), the pIC50 [1] was < 4.00 and the IC50 (FP, mean of runs) was > 95 µM (inactive). For the same compound, the pIC50 [2] was < 4.02 and the pIC50 [3] was < 4.02.
With `COc1ccc(C(=O)N2CCC(C)(C(=O)NS(=O)(=O)C3CC3)C2)cc1F` (stereo not given) the IC50 (AlphaScreen, mean of runs) was > 100 µM (inactive), the pIC50 [1] was < 4.00 and the IC50 (FP, mean of runs) was > 95 µM (inactive). The pIC50 [2] was < 4.02 and the pIC50 [3] was < 4.02.
In the case of `Cc1ccc(C(=O)N2CCN(C34CC5CC(CC(C5)C3)C4)CC2)o1`, the IC50 (AlphaScreen, mean of runs) was “inactive”, the pIC50 [1] was 4.12 and the IC50 (FP, mean of runs) was > 95 µM (inactive). For the same compound, the pIC50 [2] was < 4.02 and the pIC50 [3] was < 4.02.
`CN(C)CCOC(c1ccc(Cl)cc1)c1ccccn1` (stereo not given) was tested, and the IC50 (AlphaScreen, mean of runs) was > 100 µM (inactive), the pIC50 [1] was < 4.00 and the IC50 (FP, mean of runs) was > 95 µM (inactive). The pIC50 [2] was < 4.02 and the pIC50 [3] was < 4.02.
In the case of `Cc1ccc(C(=O)Nc2nnc([C@H]3C[C@H](O)[C@@H](CO)O3)s2)cc1`, the IC50 (AlphaScreen, mean of runs) was > 100 µM (inactive), the pIC50 [1] was < 4.00 and the IC50 (FP, mean of runs) was > 95 µM (inactive). For the same compound, the pIC50 [2] was < 4.02 and the pIC50 [3] was < 4.02.
`CC(=O)Nc1ccccc1OCC(=O)N(Cc1ccccc1)C(C)C` was tested, and the IC50 (AlphaScreen, mean of runs) was > 100 µM (inactive), the pIC50 [1] was < 4.00 and the IC50 (FP, mean of runs) was > 95 µM (inactive). The pIC50 [2] was < 4.02 and the pIC50 [3] was < 4.02.

Reference: PubChem BioAssay AID651650 (Sanford-Burnham Center for Chemical Genomics, 2012)
